Results: patent US20190151350A1, “DEPOLYMERIZED HOLOTHURIAN GLYCOSAMINOGLYCAN COMPOSITION AND PREPARATION METHOD AND APPLICATION THEREOF” (Suzhou Yi-hua Biomedical Technology co., Ltd, priority 2017, published 2019)

System: 4T1 murine mammary carcinoma
Assay: Orthotopic 4T1 murine mammary carcinoma model, lung metastasis
Type: in vivo, BALB/C mice
Procedure: 4T1 cells are cultured with RPMI-1640 culture solution, wherein the concentration of added fetal calf serum is 10%, a penicillin/streptomycin double-antibody is diluted in the culture solution based on the ratio of 1:100, and the cells are cultured in a thermostatic incubator which contains 5% CO2 and has a saturation temperature of 37° C. The cells are subjected to passage every other 2-3 days based on the ratio of 1:3-1:5. BALB/C mice are randomly divided into 7 groups, and a fourth fat pad of the breast is inoculated with 1×10^5 4 T1 cells. Then 20 mg/kg, 40 mg/kg and 80 mg/kg […] and 4 mg/kg dalteparin are injected to each group respectively. Mice were observed daily. Body weights and tumor volumes were recorded three times per week during the experiment. Breast tumors are removed after continuous administration for 12 days, and then 4 mg/kg cisplatin is […] to each group from the 13th thy, once in every four days. On the 30th day, anesthesia is conducted, the mice are sacrificed, lungs and spleens are taken out, washed and weighted. Photos were taken and lung samples were fixed in 10% neutral for metastatic nodule count and HE staining

[1] = cisplatin alone or combined with dHG10092, compared with negative control group

N.N.[Cl][Pt][Cl] [Cisplatin]
body weight (cisplatin 4 mg/kg, alone or in a combination): can cause weight reduction | lung weight [1]: much lower | spleen weight [1]: much lower | lung tumor area range (HE staining) (cisplatin independently or with dHG10092): remarkably reduce the lung tumor area range
